Measured values published in publication PMC10286459 (Cell & Bioscience, 2023).
Non-standard residues stand in square brackets, D forms with d. Residues, ends and D or L forms follow the SMILES beside them.

Columns and labels:
[1] = tested on: FOXM1-binding promoters (6xFOXM1 binding sequence-containing promoter, − 1.8 kb promoter of CDC25B); experiment: Dual luciferase reporter, FOXM1-binding promoters; details: HEK-293T, cotransfection with pCMV-FOXM1; M1-21 5, 10, 20 µM for 24 h; n = 3
Method: C Reporter plasmids containing the luciferase gene downstream of the 6×FOXM1 binding sequence (6×FOXM1 Binding-Luc, 0.4 µg) or the − 1.8 kb CDC25B promoter (CDC25B pro(-1.8 kb)-Luc, 0.4 µg) were co-transfected with pCMV-FOXM1 (0.6 µg) into HEK-293T cells, plus pRL-CMV plasmid (20 ng/well) as a loading control. […] Then cell lysates were prepared and used for the measurement of dual Luciferase activities. Number of repetitions = 3. […] F Reporter plasmids containing the luciferase gene downstream of the − 1.4 kb PLK1 promoter (PLK1 pro(-1.4 kb)-Luc, 0.4 µg) were co-transfected with pCMV-FOXM1 (0.6 µg) into HEK-293T cells, plus pRL-CMV plasmid (20 ng/well) as loading control. […] Then cell lysates were prepared and used to measure dual Luciferase activity. Number of repetitions = 3.
HEK-293T cells (1×10^5 cells/well in 12-well plates) were transfected (EZ Trans, LIFE iLAB BIO, China) with certain luciferase reporter vectors (0.4 µg) and expression vector (0.6 µg) (or control plasmid (0.6 µg)). pRL-CMV plasmid (20 ng) was used as loading control for each transfection. 8 Hours after transfection, the medium was replaced and inhibitory peptides (or control peptide) with different concentrations were added. Finally, luciferase activity was measured 48 hours later with the Dual luciferase Assay system (Promega, USA) according to the manufacturer's instructions.

mouse erythrocytes = experiment: Hemolysis assay; details: 800 µg/mL, mouse blood 10% (v/v) in normal saline, 37℃ for 3 h, absorbance 540 nm
Method: (§1) One week later, the animals’ different organs were harvested and subjected to tissue sectioning and H&E staining. Photos were taken by inverted microscope (400×, Nikon TE2000). […] The mice’s diet and activity were observed continuously for 14 days. […] Water and PBS were used as hemolysis positive and negative controls, respectively. The absorbance of the samples was measured at 540 nm and used to calculate the Hemolysis rate % = [(OD Sample - OD Negative) / (OD Positive - OD Negative)] × 100%. E Immunogenicity analysis of M1-21. […] Blood samples were collected from mice at different time points (Week 2 to Week 8) and the absorption of anti-M1-21 antibody in serum (1:1000 dilution) was measured by ELISA. HRP-conjugated anti-mouse IgG was used as an ELISA secondary antibody.
(§2) Hemolysis assays were performed with fresh mouse blood collected and dispersed in normal saline (NaCl 0.9%) at 10% (v/v). […] Sterile double distilled water and PBS were used as positive and negative controls, respectively. Immunogenicity of M1-21 was detected by ELISA in mice. […] Blood samples were collected from mice at different time points (Week 2 to Week 8). […] ELISA plates were washed twice with PBS and blocked with 3% bovine serum albumin for 2 h. […] Absorption was measured at 492 nm.

full-length FOXM1 = biological target: T1, full-length FOXM1 (Homo sapiens, UniProt Q08050); experiment: Biotin-peptide Pulldown with Streptavidin Magnetic Beads; format: binding; details: biotin-labeled peptide, cell lysates (500 µg) with endogenous or exogenous FOXM1; Western Blotting
T1 sequence (Q08050 703-763 limits assumed): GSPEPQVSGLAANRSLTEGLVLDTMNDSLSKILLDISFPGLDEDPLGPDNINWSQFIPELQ
Method: SDS-PAGE gel electrophoresis and Coomassie brilliant blue staining were performed to measure peptide stability. […] Cells were collected at different post-treatment time points (0, 1, 2, 4, 8, 16, 24, 36, 48 h). […] D The docking of peptide P22 (106–126) to the FOXM1 C-terminus (PDB ID 6OSW) was created by Rosetta FlexPepDock and PyMOL. Left, the interface of peptide-protein interaction, the peptide was shown in cyan, and the C-terminus of FOXM1 was shown according to its electrostatic potential. Right, hydrogen bonds are formed by residues at the interface of peptide and protein interaction. […] Streptavidin magnetic beads were added to lysates to pull down the biotin-peptides/protein complexes. […] M1-21mut was used as the control.

[2] = Immunogenicity, ELISA of anti-M1-21 antibodies in serum; format: in vivo, mouse; details: ICR/JCL mice, 30 mg/kg/week × 4 weeks I.P., serum Week 2 to Week 8, 1:1000, ELISA 492 nm; except at Week 4
Method: as §1, §2

[3] = In vivo imaging of distribution of ICG-labeled peptide; set-up: species or system mouse; details: ICG-labeled M1-21, 30 mg/kg tail vein, wild-type ICR/JCL mice; IVIS imaging 0.5-24 h
[4] = biological target: truncated FOXM1 recombinant proteins tagged by GST (Homo sapiens, UniProt Q08050); experiment: Pulldown of GST-tagged truncated FOXM1 recombinant proteins; details: Biotin-M1-21 20 µM, recombinant protein 100 µg; Ponceau S
Target sequence in this assay (Q08050 221-353 isoform Q08050-2): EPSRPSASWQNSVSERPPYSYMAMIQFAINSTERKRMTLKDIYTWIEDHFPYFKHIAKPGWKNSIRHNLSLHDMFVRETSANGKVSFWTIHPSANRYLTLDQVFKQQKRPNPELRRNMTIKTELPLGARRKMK
Method: (§3) The recombinant proteins in the samples were separated by PAGE-gel and detected with Ponceau S staining solution (marked by *). 10% of recombinant proteins (10 µg) were used as input controls. […] Experiments were repeated three times with similar results. C Reporter plasmids containing the luciferase gene downstream of the 6×FOXM1 binding sequence (6×FOXM1 Binding-Luc, 0.4 µg) or the − 1.8 kb CDC25B promoter (CDC25B pro(-1.8 kb)-Luc, 0.4 µg) were co-transfected with pCMV-FOXM1 (0.6 µg) into HEK-293T cells, plus pRL-CMV plasmid (20 ng/well) as a loading control. […] Then cell lysates were prepared and used for the measurement of dual Luciferase activities. Number of repetitions = 3. […] Cell lysates (500 µg) were extracted and incubated with anti-Flag magnetic beads to pull down Flag-FOXM1/proteins complexes. The levels of Flag-FOXM1 and PLK1 proteins in the samples were detected by Western blotting. 5% of cell lysates (25 µg) were used as input controls. E Flag-FOXM1, LIN9, and B-MYB protein levels in panel D samples were detected by Western blotting. F Reporter plasmids containing the luciferase gene downstream of the − 1.4 kb PLK1 promoter (PLK1 pro(-1.4 kb)-Luc, 0.4 µg) were co-transfected with pCMV-FOXM1 (0.6 µg) into HEK-293T cells, plus pRL-CMV plasmid (20 ng/well) as loading control. […] Then cell lysates were prepared and used to measure dual Luciferase activity. Number of repetitions = 3. […] I TCF/LEF Binging-Luc reporter plasmid (0.4 µg) was co-transfected with pCMV-FOXM1 (0.6 µg) into HEK-293T cells, plus pRL-CMV plasmid (20 ng/well) as loading control. […] Then cell lysates were prepared and used to measure dual Luciferase activity. Number of repetitions = 3. […] The mRNA levels of PLK1, CDC25B, and Vimentin (VIM) were measured by qPCR. GAPDH was used as a loading control. […] The protein levels of PLK1, CDC25B, and Vimentin (VIM) were measured by Western blotting. β-actin was used as a loading control.
(§4) The magnetic beads were rinsed 5 times with pre-cooled 1×PBS, then the protein loading buffer was added, and the proteins were denatured at 95°C for 10 minutes. […]

[5] = biological target: truncated FOXM1 recombinant proteins tagged by GST (Homo sapiens, UniProt Q08050); experiment: as above; details: Biotin-M1-21 20 µM, recombinant protein 100 µg; Ponceau S; remark: listed apart in the source
Target sequence in this assay (Q08050 1-138): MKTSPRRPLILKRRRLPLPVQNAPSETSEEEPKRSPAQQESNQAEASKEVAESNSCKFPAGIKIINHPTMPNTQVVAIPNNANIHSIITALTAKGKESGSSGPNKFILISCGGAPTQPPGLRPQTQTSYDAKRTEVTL
Method: as §3, §4

[6] = biological target: truncated FOXM1 recombinant proteins tagged by GST (Homo sapiens, UniProt Q08050); experiment: as above; details: Biotin-M1-21 20 µM, recombinant protein 100 µg; Ponceau S; remark: listed apart in the source
Method: as §3, §4

MDA-MB-231 cells [7] = experiment: Colony formation assay; details: MDA-MB-231, 200 cells/well, 20 µM, 14 days; versus M1-21mut
Method: C qPCR was used to verify changes in PCNA and CyclinB1 mRNA levels from panel A samples. […] D MDA-MB-231 cells were treated as panel A and cell lysates were prepared. PCNA and CyclinB1 protein levels were measured by Western blotting. β-actin was used as a loading control. […] The cells were fixed with 4% paraformaldehyde and stained with crystal violet for imaging. The treatment’s ability to form colonies was measured by counting the number of cell colonies in each well. F BALB/c nude mice (female, 6 weeks old) were subcutaneously injected with MDA-MB-231 cells (1 × 10^6 cells/mouse). […] The volume of engrafted tumors was measured every two days and growth curves were obtained at the end of the experiment. The tumor volume (V) was calculated by: V = length × diameter^2 × 1/2. G Images and weight of engrafted tumors on Day 19. H MDA-MB-231 cells were seeded into plates to reach 90% confluence. A 200 µl pipette tip was used to thread a line and then photographed. […] Number of repetitions = 3. […] The levels of mRNA or protein of E-cadherin (E-cad), Vimentin (VIM), and N-cadherin (N-cad) were measured by qPCR or Western blotting, respectively. GAPDH or β-actin was used as a loading control for mRNA or protein. mRNA values represented the mean ± SD of three replicates, and significance was calculated using unpaired t test. *P < 0.05; **P < 0.01; ***P < 0.001 […]

FOXM1/DNA complex = FOXM1/DNA complex (Homo sapiens, UniProt Q08050); experiment: Electrophoretic Mobility Shift Assays (EMSAs); format: biochemical; details: recombinant FOXM1 2 µM, FAM-labeled DNA probe 50 nM, M1-21 0.5, 1, 2 µM
Method: A FAM-labeled DNA probe (50 nM) was mixed with recombinant FOXM1 protein (2 µM) for EMSAs. […] The specificity of FOXM1/DNA complex formation was shown using 100× unlabeled DNA probes (cold probes, 5000 nM). Reactions were resolved in 4% native polyacrylamide gel electrophoresis in 0.5×TBE and visualized with a Kodak 4000 MM Imaging System (EX: 465 nm, EM: 535 nm). B The docking of P22 to FOXM1 DNA Binding domain (DBD, PDB ID 3G73) was created by Rosetta FlexPepDock and PyMOL. Left, the interface of peptide-protein interaction, peptide was shown in cyan and FOXM1 DBD was shown according to its electrostatic potential. Right, hydrogen bonds were formed by residues (blue from peptide and black from FOXM1 DBD) at the interface of peptide and protein interaction.
The double-strand DNA (dsDNA) probe was synthesized by Sangon Co., Ltd. (Shanghai, China). Protein (2 µM) was incubated with FAM-labeled dsDNA probe (50 nM) in binding buffer (20 mM Tris-Cl, 50 mM KCl, 0.5 mM EDTA, 0.2 mM DTT, 10% glycerol, pH 7.6) for 30 min on ice. […] The reactions were resolved in 4% native polyacrylamide gel electrophoresis in 0.5×TBE and visualized with Kodak 4000 MM Imaging System (Kodak, USA) (EX: 465 nm, EM: 535 nm for FAM). Sequence information is available in Supplementary Table S3.

MDA-MB-231 cells [8] = experiment: Wound Healing assay; details: MDA-MB-231, 10 µM for 36 h; versus M1-21mut; n = 3
β-catenin = β-catenin levels in cytosol and nuclear protein samples; details: MDA-MB-231, 20 µM for 6 h; Western blotting
Method: The recombinant proteins in the samples were separated by PAGE-gel and detected with Ponceau S staining solution (marked by *). 10% of recombinant proteins (10 µg) were used as input controls. […] Mean binding affinity values (KD (µM)) were shown on the panel. Experiments were repeated three times with similar results. C Reporter plasmids containing the luciferase gene downstream of the 6×FOXM1 binding sequence (6×FOXM1 Binding-Luc, 0.4 µg) or the − 1.8 kb CDC25B promoter (CDC25B pro(-1.8 kb)-Luc, 0.4 µg) were co-transfected with pCMV-FOXM1 (0.6 µg) into HEK-293T cells, plus pRL-CMV plasmid (20 ng/well) as a loading control. […] The levels of Flag-FOXM1 and PLK1 proteins in the samples were detected by Western blotting. […] E Flag-FOXM1, LIN9, and B-MYB protein levels in panel D samples were detected by Western blotting. […] The mRNA levels of PLK1, CDC25B, and Vimentin (VIM) were measured by qPCR. […] The protein levels of PLK1, CDC25B, and Vimentin (VIM) were measured by Western blotting. β-actin was used as a loading control.
The cells were washed with ice-cold 1×PBS and lysed on ice with IP lysate buffer containing 20 mM Tris/HCl pH 7.6, 150 mM NaCl, 1% NP-40, 0.1 mM EDTA, and protease inhibitors. […] After centrifugation, the protein concentration in the supernatant was measured with a BCA protein reagent (Thermo Fisher Scientific, USA). […]

[9] = biological target: T2, interaction between FOXM1 and PLK1 (Homo sapiens, UniProt Q08050); experiment: Co-IP in 231-Flag-FOXM1-Ind cells; format: cell-based; details: doxycycline 200 ng/mL 24 h, M1-21 10, 20 µM or TAT-106-126 20, 40, 80 µM for 6 h
T2 construct: expressed in transfected cells; host or cells: MDA-MB-231 stably infected with pLVX-TetOne-Flag-FOXM1b lentivirus (231-Flag-FOXM1-Ind), doxycycline-induced
From the text: Number of repetitions = 3. […] Number of repetitions = 3. […] Number of repetitions = 3. […] GAPDH was used as a loading control.

T2 sequence (Q08050 1-748 isoform Q08050-2): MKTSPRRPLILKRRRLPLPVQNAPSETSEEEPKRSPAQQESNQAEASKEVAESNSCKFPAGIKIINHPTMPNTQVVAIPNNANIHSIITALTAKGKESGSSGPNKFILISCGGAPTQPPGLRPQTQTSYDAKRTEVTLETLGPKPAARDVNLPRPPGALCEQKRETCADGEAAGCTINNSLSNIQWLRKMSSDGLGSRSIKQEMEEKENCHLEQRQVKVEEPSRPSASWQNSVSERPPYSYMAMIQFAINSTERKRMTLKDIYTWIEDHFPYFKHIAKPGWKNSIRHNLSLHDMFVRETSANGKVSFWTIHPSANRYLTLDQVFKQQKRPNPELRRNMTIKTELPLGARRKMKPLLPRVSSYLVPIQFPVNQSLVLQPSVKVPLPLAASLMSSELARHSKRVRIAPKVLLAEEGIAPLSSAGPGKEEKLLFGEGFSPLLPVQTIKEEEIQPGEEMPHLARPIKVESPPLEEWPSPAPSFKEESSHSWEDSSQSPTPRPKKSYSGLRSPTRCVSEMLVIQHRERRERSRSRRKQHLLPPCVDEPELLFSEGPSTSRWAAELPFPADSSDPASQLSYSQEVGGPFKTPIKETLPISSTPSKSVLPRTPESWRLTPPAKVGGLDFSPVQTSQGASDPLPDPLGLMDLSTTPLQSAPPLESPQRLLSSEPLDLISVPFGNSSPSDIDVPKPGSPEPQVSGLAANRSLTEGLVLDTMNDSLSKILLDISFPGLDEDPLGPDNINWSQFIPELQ
Sequence of FOXM1/DNA complex (Q08050 1-748 isoform Q08050-2, one chain of several): as the sequence (Q08050 1-748 isoform Q08050-2) above

## CC[C@@H](C)[C@@H](NC(=O)[C@@H](CC(C)C)NC(=O)[C@H](NC(=O)[C@@H](CO)NC(=O)[C@@H](CS)NC(=O)CNC(=O)CNC(=O)[C@@H](C)NC(=O)[C@H]1CCCN1C(=O)[C@H](NC(=O)[C@@H](CCC(N)=O)NC(=O)[C@H]1CCCN1C(=O)[C@H]1CCCN1C(=O)CNC(=O)[C@@H](CC(C)C)NC(=O)[C@@H](CCCNC(=N)N)NC(=O)[C@H]1CCCN1C(=O)[C@@H](CCC(N)=O)NC(=O)[C@H](NC(=O)[C@H](N)CCC(N)=O)[C@H](C)O)[C@H](C)O)[C@H](C)CC)C(=O)N[C@H](Cc1ccccc1)C(=O)N[C@H](CCCNC(=N)N)C(=O)N[C@H](CCCNC(=N)N)C(=O)N[C@H](CCCNC(=N)N)C(=O)N[C@H](CCC(N)=O)C(=O)N[C@H](CCCNC(=N)N)C(=O)N[C@H](CCCNC(=N)N)C(=O)N[C@H](CCCCN)C(=O)N[C@H](CCCCN)C(=O)N[C@H](CCCNC(=N)N)C(=O)NCC(=O)O [M1-21] (H-[dQ][dT][dQ][dP][dR][dL]G[dP][dP][dQ][dT][dP][dA]GG[dC][dS][dI][dL][dI][dF][dR][dR][dR][dQ][dR][dR][dK][dK][dR]G-OH; N-terminus and C-terminus assumed)
[1]
  FOXM1-mediated stimulation on FOXM1-binding promoters (luciferase): abrogated FOXM1-mediated stimulation
Mouse erythrocytes
  hemolysis to erythrocytes: very mild hemolysis
full-length FOXM1
  binding to full-length FOXM1 in Pulldown: bound
[2]
  M1-21-specific antibody generation in serum: relatively low levels
[3]
  period of stay in the body (stability in mice): > 15 h
[4]
  binding to GST-FOXM1_221-353 in Pulldown: bound
[5]
  binding to GST-FOXM1_1-138 in Pulldown: bound
[6]
  binding to GST-FOXM1_688-748 in Pulldown: bound
MDA-MB-231 cells [7]
  colony formation: inhibitory effects
FOXM1/DNA complex
  DNA binding ability of FOXM1 (EMSA): did not disturb
MDA-MB-231 cells [8]
  cell migration: inhibited
β-catenin
  β-catenin levels in cytoplasm and nucleus: elevated levels of β-catenin in the cytoplasm and declined levels of β-catenin in the nucleus
[9]
  interaction between FOXM1 and PLK1 (Co-IP): disrupted the interaction
